Measurements taken from publication PMC6930223 (Scientific Reports, 2019).

Tests used:
hERG1a [1] = system: hERG1a; design: method as in PMID 27260674; details: read-out: IC50 in hERG1a-injected Xenopus oocytes; cited from earlier work
hERG1a [2] = assay: Immunofluorescence surface expression (CTCF/area) in HEK293-hERG1a/1b cells; format: cell-based, human; details: 10 µM, 24 h, control 0.1% (v/v) DMSO
Experimental: (§1) Briefly, cells were first seeded onto 24 mm × 24 mm pre-coated glass cover slips (Leica Microsystems, Germany) in a 6 well plate containing 10% (v/v) FBS-complete DMEM medium. The sterile glass cover slips (Leica Microsystems, Germany) were coated with HistoGrip (Invitrogen, USA) before use. Cells were first cultured in fresh medium containing 0.5% (v/v) FBS for 4 h before replenishing with medium containing arsenic trioxide (positive control) or mitragynine for 24 h. Medium containing 0.1% (v/v) DMSO was used as control. After incubation, the monolayer cells were fixed with 4% (w/v) paraformaldehyde and incubated for 15 min at room temperature, followed by rinsing with PBST solution and incubating with 0.1% (v/v) Triton X-100 solution for 2 min. Subsequently blocking was performed with 3% (w/v) BSA for 1 h and followed by incubation with primary antibodies against hERG1a (1:1000) and hERG1b (1:125) at 4 °C overnight. Immunolabelling was carried out using anti-rabbit IgG F(ab’)2 Alexa Fluor® 488 molecular probes (Cell Signaling, USA) diluted at 1:250 in 3% (w/v) BSA at room temperature. Finally, the cover slips were mounted using Fluoroshield™ with DAPI (Sigma-Aldrich, USA) and viewed under 600x magnification using Nikon C2 confocal microscope (Nikon, USA). The excitation/emission wavelengths for Alexa Fluor 488 and DAPI were 488/512 nm and 405/488 nm respectively. The laser imaging settings such as laser power, gain and amplification factor were set to be similar for all samples. […] For each test sample, at least 20 cells were randomly selected from the 15 spots for quantitation. The green fluorescence intensity was quantified using ImageJ software (http://imagej.nih.gov/ij/)[72],[73]. Intensity was represented as the “corrected total cell fluorescence” (CTCF) per area using the equation “CTCF/area = [Integrated density - (Area of selected cell × Mean fluorescence of background readings)]/Area of selected cell”. Relative protein expression of hERG1a and hERG1b was determined by dividing the mean CTCF/area of treated cells to that of the untreated control. […]

hERG1b = assay: as above; format: cell-based, human; details: 24 h
Experimental: as §1

mitragynine
IC50 (hERG1a [1]): 1030 nM | hERG1a fluorescence intensity vs control (hERG1a [2]): significant reduction to approximately half of the intensity | hERG1b fluorescence intensity (hERG1b; 1 µM): unaffected | hERG1b fluorescence intensity (hERG1b; 10 μM): unaffected
